Reference: BigSolDB 2.1

O=C1NC(=O)C(c2ccccc2)(c2ccccc2)N1
solubility (mole fraction)
Conditions	293.2 K	298.2 K	303.2 K	308.2 K	313.2 K
in n-propanol	0.00263	0.00304	0.00329	0.00358	0.00396
in water	1.29e-06	2.11e-06	2.42e-06	2.64e-06	2.94e-06
